Assay results published in US9120785B2, “Pyridyl aminopyridines as Syk inhibitors” (Merck Sharp & Dohme Corp., priority 2011, dated 2015).
Like-named read-outs stand apart in the source and are kept apart here.

Target: recombinant human GST-Syk (Homo sapiens (Human), UniProt P43405)
Assay: Homogeneous Time-Resolved Fluorescence (HTRF) assay for the recombinant human Syk enzyme
Format: biochemical
Conditions: recombinant human GST-Syk 5 pM, ATP 25 μM
Experimental: Homogeneous Time-Resolved Fluorescence (HTRF) Assay for the Recombinant Human Syk Enzyme:
A recombinant GST-hSyk fusion protein was used to measure potency of compounds to inhibit human Syk activity. The recombinant human GST-Syk ([…] #08-176) (5 pM final concentration) was incubated with various concentrations of the inhibitor diluted in DMSO (0.1% final concentration) for 10 minutes at room temperature in 15 mM Tris-HCl (pH 7.5), 0.01% tween 20, 2 mM DTT in 384 well plate format. To initiate the reaction the biotinylated substrate peptide (250 nM final concentration) that contains the phosphorylation site for Syk was added with magnesium (5 mM final concentration) and ATP (25 μM final concentration). Final volume of the reaction was 10 μL. Phosphorylation of the peptide was allowed to proceed for 45 minutes at room temperature. To quench the reaction and detect the phosphorylated product, 2 nM of a Europium-anti-phosphotyrosine antibody (Perkin Elmer #AD0161) and 70 nM SA-APC (Perkin-Elmer #CR130-100) were added together in 15 mM Tris pH 7.5, 40 mM EDTA, 0.01% tween 20. Final volume of the quenching solution was 10 μL. The resulting HTRF signal was measured after 30 minutes on an EnVision (Perkin-Elmer) reader using a time-resolved fluorescence protocol.

[1] = class symbols, read-out: rhSyk activity (IC50)

Structure (SMILES)	IC50 [1] [nM]	IC50 (10-dose titration, read-out: rhSyk (nM) IC50) [nM]
Cc1cc(Nc2cccc(-c3cnc(C(C)(O)[C@H]4CC[C@H](C(=O)O)CC4)s3)n2)ncc1F (single isomer, unassigned) [Example 5, trans-4-[(1R or 1S)-1-(5-{6-[(5-Fluoro-4-methylpyridin-2-yl)amino]pyridin-2-yl}-1,3-thiazol-2-yl)-1-hydroxyethyl]cyclohexanecarboxylic acid]	≤ 100	
CCC(O)(c1ncc(-c2cc(C)cc(Nc3cc(C4CC4)ccn3)n2)s1)[C@H]1CC[C@H](C(=O)O)CC1 (single isomer, unassigned) [Example 1, Enantiomer 1, trans-4-[1-(5-{6-[(4-cyclopropylpyridin-2-yl)amino]-4-methylpyridin-2-yl}-1,3-thiazol-2-yl)-1-hydroxypropyl]cyclohexanecarboxylic acid]	≤ 100	2.9
Cc1cc(Nc2cc(C(F)(F)F)ccn2)nc(-c2cnc(C(C)(O)C3CCNC3)s2)c1 (centres unmarked) [Example 12, 1-[5-(4-Methyl-6-{[4-(trifluoromethyl)pyridin-2-yl]amino}pyridin-2-yl)-1,3-thiazol-2-yl]-1-(pyrrolidin-3-yl)ethanol]	≤ 100	

The next lines start with the values.

IC50 [1] [nM]	IC50 (10-dose titration, read-out: rhSyk (nM) IC50) [nM]	Structure (SMILES)
≤ 100		Cc1cc(Nc2cc(C)c(Cl)cn2)nc(-c2cnc(C(C)(O)[C@H]3CC[C@H](C(=O)O)CC3)s2)c1 (relative stereo) [Example 14-5, trans-4-[1-(5-{6-[(5-chloro-4-methylpyridin-2-yl)amino]-4-methylpyridin-2-yl}-1,3-thiazol-2-yl)-1-hydroxyethyl]cyclohexanecarboxylic acid]
≤ 100		Cc1cc(Nc2cc(C(F)(F)F)ccn2)nc(-c2cnc(C(C)(O)C3CCC(C(=O)O)C(C)C3)s2)c1 (single isomer, unassigned) [Example 15-9, 4-{1-hydroxy-1-[5-(4-methyl-6-{[4-(trifluoromethyl)pyridin-2-yl]amino}pyridin-2-yl)-1,3-thiazol-2-yl]ethyl}-2-methylcyclohexanecarboxylic acid]
≤ 100		Cc1cc(Nc2cc(C(F)(F)F)ccn2)nc(-c2cnc(C(O)(C3CC3)[C@H]3CC[C@H](C(=O)O)CC3)s2)c1 (single isomer, unassigned) [Example 14-17, trans-4-{cyclopropyl(hydroxy)[5-(4-methyl-6-{[4-(trifluoromethyl)pyridin-2-yl]amino}pyridin-2-yl)-1,3-thiazol-2-yl]methyl}cyclohexanecarboxylic acid]
≤ 100		Cc1ccnc(Nc2cc(C)cc(-c3cnc(C(C)(O)[C@H]4CC[C@H](C(=O)O)C(C)(C)C4)s3)n2)c1 (stereo partly drawn) [Example 14-33, (1S,4S)-4-[1-hydroxy-1-(5-{4-methyl-6-[(4-methylpyridin-2-yl)amino]pyridin-2-yl}-1,3-thiazol-2-yl)ethyl]-2,2-dimethylcyclohexanecarboxylic acid]
≤ 100		Cc1cc(Nc2cc(C(F)(F)F)ccn2)nc(-c2cnc(C(C)(O)C3CCC(C(=O)O)C(C)C3)s2)c1 (single isomer, unassigned) [Example 15-11, 4-{1-hydroxy-1-[5-(4-methyl-6-{[4-(trifluoromethyl)pyridin-2-yl]amino}pyridin-2-yl)-1,3-thiazol-2-yl]ethyl}-2-methylcyclohexanecarboxylic acid]
≤ 100		COc1ccnc(Nc2cccc(-c3cnc(C(C)(O)[C@H]4CC[C@H](C(=O)O)C(C)(C)C4)s3)n2)c1 (stereo partly drawn) [Example 14-48, (1S,4S)-4-[1-hydroxy-1-(5-{6-[(4-methoxypyridin-2-yl)amino]pyridin-2-yl}-1,3-thiazol-2-yl)ethyl]-2,2-dimethylcyclohexanecarboxylic acid]
≤ 100		Cc1cc(Nc2cc(C(F)(F)F)ccn2)nc(-c2cnc(C(C)(O)C3CCC(C(=O)O)C(C)C3)s2)c1 (centres unmarked) [Example 15-16, 4-{1-hydroxy-1-[5-(4-methyl-6-{[4-(trifluoromethyl)pyridin-2-yl]amino}pyridin-2-yl)-1,3-thiazol-2-yl]ethyl}-2-methylcyclohexanecarboxylic acid]
